Where a name gives a salt, the structure may show the parent alone.
Biological target: T1, Farnesyltransferase (FTase) (Bos taurus, UniProt P29702+P49355)
T1 construct: precipitation from a beef brain homogenate; from tissue; host or cells: bovine brain
Assay: Farnesyltransferase inhibition (scintillation proximity assay, [3H]-FPP / biotin-K-ras peptide)
Format: biochemical, bovine
Conditions: compound at 10^−6 M; bovine FTase, 37° C., 30 minutes
Summary of the method: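 Read-out: [3H]-FPP prenylation of a biotinylated K-ras peptide by SPA, measured 1 h after quenching. Enzyme: FTase purified from bovine brain (ammonium sulfate cut, DEAE Sepharose), free of GGTase I and II. Test compounds in ethanol, diluted 10-fold into the reaction.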

T1 sequence (P49355 whole entry, one chain of several): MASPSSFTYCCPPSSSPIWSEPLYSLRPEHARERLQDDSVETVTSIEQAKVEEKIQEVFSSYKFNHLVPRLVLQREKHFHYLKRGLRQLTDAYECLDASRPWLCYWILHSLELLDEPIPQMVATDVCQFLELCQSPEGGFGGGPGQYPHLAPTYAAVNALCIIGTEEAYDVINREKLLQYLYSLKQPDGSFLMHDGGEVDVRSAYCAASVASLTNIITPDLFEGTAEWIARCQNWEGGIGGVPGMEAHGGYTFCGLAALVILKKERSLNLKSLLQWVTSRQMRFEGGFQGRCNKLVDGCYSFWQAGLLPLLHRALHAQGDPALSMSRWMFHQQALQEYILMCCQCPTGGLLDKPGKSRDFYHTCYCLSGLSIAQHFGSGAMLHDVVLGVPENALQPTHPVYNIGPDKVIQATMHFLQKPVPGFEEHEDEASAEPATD

Compound	inhibition at 1 µM	% Inhibition at 10^−6M
Cc1ccccc1-c1cc(CNc2cccnc2)ccc1C#N [Example 212, 2′-methyl-5-((3-pyridinylamino)methyl)(1,1′-biphenyl)-2-carbonitrile]	10%	
Cc1ccccc1-c1cc(C(OCc2ccccc2)c2cncs2)ccc1C#N (stereo not drawn) [Example 213, 5-((benzyloxy)(1,3-thiazol-5-yl)methyl)-2′-methyl(1,1′-biphenyl)-2-carbonitrile hydrochloride]	41%	
Cc1ccccc1-c1cc(C(O)c2cncs2)ccc1C#N (stereo not drawn) [Example 214, 5-(hydroxy(1,3-thiazol-5-yl)methyl)-2′-methyl(1,1′-biphenyl)-2-carbonitrile]	20%	
Cc1ccccc1-c1cc(CN(Cc2ccccc2)Cc2cccnc2)ccc1C#N [Example 215, 5-((benzyl(3-pyridinylmethyl)amino)methyl)-2′-methyl(1,1′-biphenyl)-2-carbonitrile hydrochloride]	29%	
Cc1ccccc1-c1cc(NCc2cccnc2)ccc1C#N [Example 216, 2′-methyl-5-((3-pyridinylmethyl)amino)(1,1′-biphenyl)-2-carbonitrile]	27%	
Cc1ccccc1-c1cc(N(Cc2ccccc2)Cc2cccnc2)ccc1C#N [Example 217, 5-(benzyl(3-pyridinylmethyl)amino)-2′-methyl(1,1′-biphenyl)-2-carbonitrile]	71%	
Cc1ccccc1-c1cc(NCc2cncn2C)ccc1C#N [Example 225, 2′-methyl-5-(((1-methyl-1H-imidazol-5-yl)methyl)amino)(1,1′-biphenyl)-2-carbonitrile]	50%	
Cc1ccccc1-c1cc(N(Cc2ccccc2)Cc2cncn2C)ccc1C#N [Example 226, 5-(benzyl((1-methyl-1H-imidazol-5-yl)methyl)amino)-2′-methyl(1,1-biphenyl)-2-carbonitrile]	100%	
CN(Cc1cncn1C)c1ccc(C#N)c(-c2cccc3ccccc23)c1 [Example 227, 4-(methyl((1-methyl-1H-imidazol-5-yl)methyl)amino)-2-(1-naphthyl)benzonitrile]	100%	
C=CCN(Cc1cncn1C)c1ccc(C#N)c(-c2cccc3ccccc23)c1 [Example 228, 4-(allyl( (1-methyl-1H-imidazol-5-yl)methyl)amino)-2-(1-naphthyl)benzonitrile]	100%	
Cc1ccccc1-c1cc(N(Cc2ccc(C#N)cc2)Cc2cncn2C)ccc1C#N [Example 229, 5-((4-cyanobenzyl)((1-methyl-1H-imidazol-5-yl)methyl)amino)-2′-methyl(1,1′-biphenyl)-2-carbonitrile]	100%	
Cn1cncc1CN(CCCc1ccccc1)c1ccc(C#N)c(-c2cccc3ccccc23)c1 [Example 230, 4-(((1-methyl-1H-imidazol-5-yl)methyl)(3-phenylpropyl)amino)-2-(1-naphthyl)benzonitrile]	100%	
Cn1cncc1CN(Cc1ccc(C#N)cc1)c1ccc(C#N)c(-c2cccc3ccccc23)c1 [Example 231, 4-((4-cyanobenzyl)((1-methyl-1H-imidazol-5-yl)methyl)amino)-2-(1-naphthyl)benzonitrile]	100%	
Cn1cncc1CN(Cc1ccccc1)c1ccc(C#N)c(-c2cccc3ccccc23)c1 [Example 232, 4-(benzyl((1-methyl-1H-imidazol-5-yl)methyl)amino)-2-(1-naphthyl)benzonitrile]	100%	
CCCCCCN(Cc1cncn1C)c1ccc(C#N)c(-c2cccc3ccccc23)c1 [Example 233, 4-(hexyl((1-methyl-1H-imidazol-5-yl)methyl)amino)-2-(1-naphthyl)benzonitrile]	100%	
Cn1cncc1CNc1ccc(C#N)c(-c2cccc3ccccc23)c1 [Example 234, 4-(((1-methyl-1H-imidazol-5-yl)methyl)amino)-2-(1-naphthyl)benzonitrile]	100%	
Cn1cncc1CN(C(=O)c1ccccc1)c1ccc(C#N)c(-c2cccc3ccccc23)c1 [Example 235, N-(4-cyano-3-(1-naphthyl)phenyl)-N-((1-methyl-1H-imidazol-5-yl)methyl)benzamide]	100%	
Cc1ccccc1-c1cc(N(Cc2cncn2C)C(=O)c2ccccc2)ccc1C#N [Example 236, N-(6-cyano-2′-methyl(1,1′-biphenyl)-3-yl)-N-((1-methyl-1H-imidazol-5-yl)methyl)benzamide]	93%	
Cc1ccccc1-c1cc(N(Cc2cccc(C#N)c2)Cc2cncn2C)ccc1C#N [Example 237, 5-((3-cyanobenzyl)((1-methyl-1H-imidazol-5-yl)methyl)amino)-2′-methyl(1,1′-biphenyl)-2-carbonitrile]	100%	
Cn1cncc1C(OCc1ccc(Cl)c(Cl)c1)c1ccc(C#N)c(-c2cccc3cccnc23)c1 (stereo not drawn) [Example 240, 4-(((3,4-dichlorobenzyl)oxy)(1-methyl-1H-imidazol-5-yl)methyl)-2-(8-quinolinyl)benzonitrile dihydrochloride]	95%	
Cl.Cl.Cn1cncc1C(OCc1ccc(C(F)(F)F)c(F)c1)c1ccc(C#N)c(-c2cccc3cccnc23)c1 (stereo not drawn) [Example 241, 4-(((3-fluoro-4-(trifluoromethyl)benzyl)oxy)(1-methyl-1H-imidazol-5-yI)methyl)-2-(8-quinolinyl)benzonitrile dihydrochloride]		98%
Cn1cncc1C(OCc1ccc(F)c(C(F)(F)F)c1)c1ccc(C#N)c(-c2cccc3cccnc23)c1 (stereo not drawn) [Example 242, 4-(((4-fluoro-3-(trifluoromethyl)benzyl)oxy)(1-methyl-1H-imidazol-5-yl)methyl)-2-(8-quinolinyl)benzonitrile dihydrochloride]	98%	
Cn1cncc1C(OCc1ccc(C(=O)O)cc1)c1ccc(C#N)c(-c2cccc3cccnc23)c1 (stereo not drawn) [Example 243, 4-(((4-cyano-3-(8-quinolinyl)phenyl)(1-methyl-1H-imidazol-5-yl)methoxy)methyl)benzoic acid dihydrochloride]	82%	
Cn1cncc1C(OCc1ccc(C(N)=O)cn1)c1ccc(C#N)c(-c2cccc3cccnc23)c1 (stereo not drawn) [Example 244, 6-(((4-cyano-3-(8-quinolinyl)phenyl)(1-methyl-1H-imidazol-5-yl)methoxy)methyl)nicotinamide trihydrochloride]	90%	
Cn1cncc1C(OCc1ccc(C(=O)O)cn1)c1ccc(C#N)c(-c2cccc3cccnc23)c1 (stereo not drawn) [Example 245, 6-(((4-cyano-3-(8-quinolinyl)phenyl)(1-methyl-1H-imidazol-5-yl)methoxy)methyl)nicotinic acid trihydrochloride]	90%	
Cn1cncc1C(OCc1ncc(C(F)(F)F)cc1Cl)c1ccc(C#N)c(-c2cccc3cccnc23)c1 (stereo not drawn) [Example 246, 4-(((3-chloro-5-(trifluoromethyl)-2-pyridinyl)methoxy)(1-methyl-1H-imidazol-5-yl)methyl)-2-(8-quinolinyl)benzonitrile]	90%	
Cn1cncc1C(OCc1ccc(C#N)cn1)c1ccc(C#N)c(-c2cccc3cccnc23)c1 (stereo not drawn) [Example 247, 6-(((4-cyano-3-(8-quinolinyl)phenyl)(1-methyl-1H-imidazol-5-yl)methoxy)methyl)nicotinonitrile trihydrochloride]	95%	
